In article PMC8620715, “Biological Activity of Triazolopyrimidine Copper(II) Complexes Modulated by an Auxiliary N-N-Chelating Heterocycle Ligands” (Molecules, 2021):

Assays:
MRSA 388 = assay: MIC by broth microdilution; type: cell-based, Staphylococcus aureus; conditions: MRSA 388, planktonic
Procedure: (§1) The antibacterial assays were carried out using two Gram-negative (Escherichia coli ATCC 25922, Pseudomonas aeruginosa ATCC 27853) and two Gram-positive (Staphylococcus aureus ATCC 25923, MRSA (meticillin-Resistant S. aureus) 388 (ATCC, American Type Culture Collection) bacteria.
(§2) The antimicrobial activity of the two complexes (1) and (2) was assessed using their minimum inhibitory concentration (MIC) by the broth microdilution method, as previously described by the Clinical and Laboratory Standard Institute (CLSI; M07-A9 document). A broth microdilution assay was performed in sterile 96-well plates using Muller-Hinton broth (Scharlau; MHB). The compounds solubilized in […] (1,000 μg/mL) were serially diluted in 90 μL MHB, in concentrations ranging between 500 and 0.97 μg/mL. Overnight cultures were used to prepare suspension in phosphate-buffered saline (pH 7.0) to match a 0.5 McFarland density. The bacterial suspensions were further diluted to 1:100 by adding 0.1 mL of bacterial suspension to 9.9 mL of MHB. A volume of 10 μL of this dilution was added to each well of columns 1–10, containing different concentrations of the tested compounds. […] Additionally, 10 μL of the diluted bacterial suspension was added in column 11 (the growth control). A volume of 100 μL MHB was added to the microtiter plates’ sterility control wells (column 12). After inoculation, the plates were incubated at 35 ± 2 °C for 18 h. Growth was measured as light absorbance (620 nm) in comparison to an uninoculated well (negative control). It was detected using a microtiter plate reader (Apollo LB 911ELISA (Berthold Technologies GmbH & Co. KG, Waltham, MA, USA)). The MIC of each compound was defined as the lowest concentration required to inhibit bacterial growth.

S. aureus 25923 = assay: MIC by broth microdilution; type: cell-based, Staphylococcus aureus; conditions: S. aureus 25923, planktonic
Procedure: as §1, §2

B16 cells = assay: Cell morphology by fluorescence microscopy (phalloidin staining), B16 cells; type: cell-based, mouse; conditions: 24 h
Procedure: The morphological changes induced by the treatment of the BJ and B16 cell lines with the tested compounds at two different concentrations (2.5 and 10 µg/mL) applied for 24 h were investigated by fluorescence microscopy.
According to the manufacturer protocol, the cytoskeleton actin filaments of BJ and B16 cells were stained with phalloidin-FITC (Sigma-Aldrich, St. Louis, MO, USA). Briefly, cells were washed with PBS (5 min, 3 times), fixed for 5 min with 3% paraformaldehyde, washed three times with PBS, permeabilized with 0.1% Triton X-100 in PBS for 15 min, washed three times with PBS, stained with 20 μg/mL phalloidin-FITC at room temperature for 1 h and rewashed three times with PBS. The cell nucleus was stained with 8 μM of Hoechst 33342 solution for 10 min, washed three times with PBS, and finally, mounted and sealed on glass slides with FluorSave™ Reagent (Merck Millipore, Germany). The fluorescence images were acquired using an Andor DSD2 Confocal Unit (Andor, Ireland), mounted on an epifluorescence microscope, Olympus BX-51 (Olympus, Germany), equipped with a 40x and 100x objective and an appropriate DAPI/Hoechst filter cube (excitation filter 390/40 […], dichroic mirror 405 nm and emission filter 452/45 nm) and GFP/FITC filter cube (excitation filter 466/40 nm, dichroic mirror 488 nm and emission filter 525/54 nm).

Saccharomyces cerevisiae = type: cell-based; conditions: for sensitivity of sod1Δ and sod2Δ to menadione: 0.1 mM, SC medium; for sensitivity of sod1Δ and sod2Δ to menadione / lysine auxotrophy of sod1Δ cells (growth in SC-Lys medium): 16 h; for lysine auxotrophy of sod1Δ cells (growth in SC-Lys medium): various concentrations; for growth of yeast cells (WT, sod1Δ, sod2Δ): concentrations up to 2 mM
Procedure: The Saccharomyces cerevisiae laboratory strain BY4741 (MATa; his3Δ1; leu2Δ0; met15Δ0; ura3Δ0) considered wild type (WT), and the isogenic strains sod1Δ and sod2Δ lacking the genes SOD1 (encoding Cu/Zn-superoxide dismutase) and SOD2 (encoding Mn-superoxide dismutase) were obtained from EUROSCARF (Frankfurt, Germany). Cells were maintained, manipulated and grown in a rich medium (YPD, 1% w/v yeast extract, 2% w/v peptone, 2% w/v glucose; 2% w/v agar was added for solid media) or on synthetic complete medium (SC, 0.67% w/v yeast nitrogen base without amino acids, 2% w/v glucose) supplemented with the necessary amino acids. Lysine drop-out medium (SC-Lys) was prepared similarly to SC, omitting lysine from the recipe. We added the complexes to autoclaved media from DMSO sterile stocks (10 mM). An overnight culture was 10^3-fold diluted in fresh medium and incubated (200 rpm, 30 °C) until the culture reached a density of 5 × 10^5 cells. The compounds were added to the desired concentrations, and culture growth was monitored at 660 nm in a 96-well multi-scanner plate reader equipped with a thermostat and shaker (Varioskan, Thermo Fischer Scientific, Vantaa, Finland). Three biological replicates were set for all determinations, and data were presented as average ± standard error (SE). The Saccharomyces cerevisiae laboratory strain BY4741 (MATa; his3Δ1; leu2Δ0; met15Δ0; ura3Δ0) considered wild type (WT), and the isogenic strains sod1Δ and sod2Δ lacking the genes SOD1 (encoding Cu/Zn-superoxide dismutase) and SOD2 (encoding Mn-superoxide dismutase) were purchased from EUROSCARF (Frankfurt, Germany). Cells were maintained and manipulated and grown in YPD medium (1% w/v yeast extract, 2% w/v peptone, 2% w/v glucose; 2% w/v agar was added for solid media). Complexes were added to autoclaved media from DMSO sterile stocks (10 mM). To determine the effect of compounds on yeast growth, a fresh overnight pre-culture was 10^3-fold diluted in YPD and incubated (200 rpm, 30 °C) until the culture reached a density of 5 × 10^5 cells/mL. The compounds were added at the desired concentrations, and cell proliferation was monitored at 660 nm in a 96-well multi-scanner auto reader plate reader equipped with a thermostat and shaker (Varioskan Thermo Fischer Scientific, Vantaa, Finland). All determinations were done on three biological replicates.

[1] = 2.5 µg/mL (2.84 μM and 2.76 μM for the complexes)

Compound | MIC (MRSA 388) [µM] | MIC (S. aureus 25923) [µM] | morphological changes of B16 cells (B16 cells; [1]) | sensitivity of sod1Δ and sod2Δ to menadione (Saccharomyces cerevisiae) | lysine auxotrophy of sod1Δ cells (growth in SC-Lys medium) (Saccharomyces cerevisiae) | growth of yeast cells (WT, sod1Δ, sod2Δ) (Saccharomyces cerevisiae) | morphological changes of B16 cells (B16 cells; 10 μg/mL (11.05 µM))
Cc1cc(C)n2ncnc2n1.Cc1cc(C)n2ncnc2n1.Cc1cc(C)n2ncnc2n1.O.[Cu+2].[O-][Cl+3]([O-])([O-])[O-].[O-][Cl+3]([O-])([O-])[O-].c1ccc(-c2ccccn2)nc1 [Complex (1), [Cu(bpy)(dmtp)2(OH2)](ClO4)2·dmtp] | 350 | 180 | not altered | alleviated the sensitivity of sod1Δ and sod2Δ to menadione | improved the growth of sod1Δ mutants | not affected | 
Cc1cc(C)n2ncnc2n1.Cc1cc(C)n2ncnc2n1.Cc1cc(C)n2ncnc2n1.O.[Cu+2].[O-][Cl+3]([O-])([O-])[O-].[O-][Cl+3]([O-])([O-])[O-].c1cnc2c(c1)ccc1cccnc12 [Complex (2), [Cu(phen)(dmtp)2(OH2)](ClO4)2·dmtp] | 20 | 40 | not altered | alleviated the sensitivity of sod1Δ and sod2Δ to menadione | improved the growth of sod1Δ mutants | not affected | significant changes
